Experimental data as given in patent US20110152236A1 (SANOFI-AVENTIS, priority 2008, published 2011).
Like-named read-outs stand apart in the source and are kept apart here.

Assays:
human CB1 receptor = molecular target: T1, human CB1 receptor (Homo sapiens, UniProt P21554); assay: intracellular cyclic AMP test in U373MG cells (HTRF cAMP Dynamic Kit); format: cell-based
T1 construct: U373MG cells naturally expressing the human CB1 receptor; endogenous in cells; host or cells: U373MG cells
Description: The compounds according to the invention were the subject of pharmacological tests for determining the activity with respect to human cannabinoid CB1-type receptors. The efficacy of the compounds of formula (I) was determined in a functional test which measures cannabinoid CB1 receptor activity (intracellular cyclic AMP test). The test for detecting intracellular cyclic AMP in U373MG cells naturally expressing the human CB1 receptor was carried out as described in the following reference: Bouaboula et al., 1995, J. Biol. Chem. 270:13973-13980. The HTRF cAMP Dynamic Kit from CisBio was used to quantify the intracellular cyclic AMP. In this test, the IC50 values are between 0.001 μM and 2 μM.

cannabinoid CB1 receptor = molecular target: T2, cannabinoid CB1 receptor (Mus musculus, UniProt P47746); assay: model of inhibition of gastrointestinal transit induced by racemic CP55,940 in mice; format: in vivo; conditions: 1 mg/kg per os; 3 hours after administration of the product; CP55,940 0.15 mg/kg ip; male CD1 mice
T2 construct: from tissue; host or cells: whole animal (mice; male CD1 mice in the gastrointestinal transit model)
T2 sequence (P47746 whole entry): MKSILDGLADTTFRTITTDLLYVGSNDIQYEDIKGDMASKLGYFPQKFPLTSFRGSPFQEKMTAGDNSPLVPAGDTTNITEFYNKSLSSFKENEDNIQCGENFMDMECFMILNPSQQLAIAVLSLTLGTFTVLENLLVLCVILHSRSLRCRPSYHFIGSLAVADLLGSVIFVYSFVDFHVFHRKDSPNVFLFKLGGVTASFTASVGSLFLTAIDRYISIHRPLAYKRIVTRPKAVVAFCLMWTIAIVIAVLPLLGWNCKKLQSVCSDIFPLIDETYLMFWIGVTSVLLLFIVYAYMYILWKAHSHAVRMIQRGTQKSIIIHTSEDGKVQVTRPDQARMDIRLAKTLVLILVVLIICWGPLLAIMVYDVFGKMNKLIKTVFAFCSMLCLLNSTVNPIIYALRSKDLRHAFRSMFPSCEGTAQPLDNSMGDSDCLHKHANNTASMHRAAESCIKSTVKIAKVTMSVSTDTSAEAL
Description: The antagonistic activity of the compounds was also shown by means of the model of inhibition of gastrointestinal transit induced by racemic CP55,940 (1RS,3RS,4RS-3-[hydroxy-2-(1,1-dimethylheptyl)phenyl]-4-(3-hydroxypropyl)cyclohexan-1-ol) in mice, according to the method described by Rinaldi-Carmona et al., J. Pharmacol, Exp. Ther. 2004, 310, 905-914. Briefly, male CD1 mice receive the test product per os 30 minutes or 2 hours before administration of the racemic CP55,940 agonist (1RS,3RS,4RS-3-[hydroxy-2-(1,1-dimethylheptyl)phenyl]-4-(3-hydroxypropyl)cyclohexan-1-ol) (0.15 mg/kg ip in 10% Cremophor). After a further 30 minutes, the animals receive a charcoal bolus po. Thirty minutes later, the animals are euthanized (CO2/O2) and the intestine is dissected. The progression of the charcoal bolus in the intestine is expressed as percentage of the total length of the intestine.

[1] = U373MG cells naturally expressing the human CB1 receptor, intracellular cyclic AMP, read-out: IC50

T1 sequence (P21554 whole entry): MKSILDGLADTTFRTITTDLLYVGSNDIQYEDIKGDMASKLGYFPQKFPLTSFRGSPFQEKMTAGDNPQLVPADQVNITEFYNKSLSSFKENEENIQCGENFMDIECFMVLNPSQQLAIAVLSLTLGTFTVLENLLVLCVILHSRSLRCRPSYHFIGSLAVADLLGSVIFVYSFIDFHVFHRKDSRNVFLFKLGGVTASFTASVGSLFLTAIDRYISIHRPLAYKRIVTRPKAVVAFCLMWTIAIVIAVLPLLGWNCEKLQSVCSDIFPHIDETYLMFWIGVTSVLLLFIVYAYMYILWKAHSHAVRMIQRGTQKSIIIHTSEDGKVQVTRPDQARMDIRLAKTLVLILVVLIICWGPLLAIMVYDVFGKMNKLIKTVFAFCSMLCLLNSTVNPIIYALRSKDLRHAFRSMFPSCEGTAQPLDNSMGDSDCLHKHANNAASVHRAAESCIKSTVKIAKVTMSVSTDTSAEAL

melting point | Structure (SMILES) | also measured
209 °C | CS(=O)(=O)N(c1cccc(C(=O)NCc2cc(O)no2)c1)C1CN(C(c2ccc(Cl)cc2)c2ccc(Cl)cc2)C1 | –
244 °C | CS(=O)(=O)N(c1cccc(C(=O)Nc2nccs2)c1)C1CN(C(c2ccc(Cl)cc2)c2ccc(Cl)cc2)C1 [Compound 1, 3-[{1-[Bis(4-chlorophenyl)methyl]azetidin-3-yl}(methylsulphonyl)amino]-N-(1,3-thiazol-2-yl)benzamide] | –
134 °C | Cn1cc(O)nc1NC(=O)c1cccc(N(C2CN(C(c3ccc(Cl)cc3)c3ccc(Cl)cc3)C2)S(C)(=O)=O)c1 [Compound 4, 3-[{1-[bis(4-chlorophenyl)methyl]azetidin-3-yl}(methylsulphonyl)amino]-N-(4-hydroxy-1-methyl-1H-imidazol-2-yl)benzamide] | –
226 °C | CS(=O)(=O)N(c1cccc(C(=O)Nc2nnc(C3CC3)s2)c1)C1CN(C(c2ccc(Cl)cc2)c2ccc(Cl)cc2)C1 [Compound 6, 3-[{1-[bis(4-chlorophenyl)methyl]azetidin-3-yl}(methylsulphonyl)amino]-N-(5-cyclopropyl-1,3,4-thiadiazol-2-yl)benzamide] | –
137 °C | CS(=O)(=O)N(c1cccc(C(=O)Nc2ncccn2)c1)C1CN(C(c2ccc(Cl)cc2)c2ccc(Cl)cc2)C1 [Compound 8, 3-[{1-[bis(4-chlorophenyl)methyl]azetidin-3-yl}(methylsulphonyl)amino]-N-(pyrimidin-2-yl)-benzamide] | –
150 °C | CS(=O)(=O)N(c1cccc(C(=O)Nc2cc[nH]n2)c1)C1CN(C(c2ccc(Cl)cc2)c2ccc(Cl)cc2)C1 [Compound 9, 3-[{1-[bis(4-chlorophenyl)methyl]azetidin-3-yl}(methylsulphonyl)amino]-N-(1H-pyrazol-3-yl)-benzamide] | –
255 °C | CS(=O)(=O)N(c1cccc(C(=O)Nc2nonc2N)c1)C1CN(C(c2ccc(Cl)cc2)c2ccc(Cl)cc2)C1 [Compound 10, N-(4-amino-1,2,5-oxadiazol-3-yl)-3-[{1-[bis(4-chlorophenyl)methyl]azetidin-3-yl}(methylsulphonyl)amino]benzamide] | IC50 (human CB1 receptor; [1]): 40 nM
208 °C | CS(=O)(=O)N(c1cccc(C(=O)Nc2cc(O)ccn2)c1)C1CN(C(c2ccc(Cl)cc2)c2ccc(Cl)cc2)C1 [Compound 11, 3-[{1-[bis(4-chlorophenyl)methyl]azetidin-3-yl}(methylsulphonyl)amino]-N-(4-hydroxypyridin-2-yl)benzamide] | IC50 (human CB1 receptor; [1]): 170 nM
174 °C | CS(=O)(=O)N(c1cccc(C(=O)Nc2n[nH]cc2C(N)=O)c1)C1CN(C(c2ccc(Cl)cc2)c2ccc(Cl)cc2)C1 [Compound 12, 3-[({3-[{1-[bis(4-chlorophenyl)methyl]azetidin-3-yl}(methylsulphonyl)amino]phenyl}carbonyl)-amino]-1H-pyrazole-4-carboxamide] | –
210 °C | CS(=O)(=O)N(c1cccc(C(=O)NCc2nc[nH]n2)c1)C1CN(C(c2ccc(Cl)cc2)c2ccc(Cl)cc2)C1 [Compound 13, 3-[{1-[Bis(4-chlorophenyl)methyl]azetidin-3-yl}(methylsulphonyl)amino]-N-(1H-1,2,4-triazol-3-ylmethyl)benzamide] | –
224 °C | CS(=O)(=O)N(c1cccc(C(=O)NCc2cc[nH]n2)c1)C1CN(C(c2ccc(Cl)cc2)c2ccc(Cl)cc2)C1 [Compound 14, 3-[{1-[Bis(4-chlorophenyl)methyl]azetidin-3-yl}(methylsulphonyl)amino]-N-(1H-pyrazol-3-ylmethyl)benzamide] | –
264 °C | CS(=O)(=O)N(c1cccc(C(=O)NCCn2cccn2)c1)C1CN(C(c2ccc(Cl)cc2)c2ccc(Cl)cc2)C1 [Compound 15, 3-[{1-[bis(4-chlorophenyl)methyl]azetidin-3-yl}(methylsulphonyl)amino]-N[2-(1H-pyrazol-1-yl)ethyl]benzamide] | IC50 (human CB1 receptor; [1]): 134 nM
120 °C | CS(=O)(=O)N(c1cccc(C(=O)NCCc2ncccn2)c1)C1CN(C(c2ccc(Cl)cc2)c2ccc(Cl)cc2)C1 [Compound 16, 3-[{1-[bis(4-chlorophenyl)methyl]azetidin-3-yl}(methylsulphonyl)amino]-N-[2-(pyrimidin-2-yl)-ethyl]benzamide] | –
219 to 221 °C | CS(=O)(=O)N(c1cc(F)cc(C(=O)Nc2ccon2)c1)C1CN(C(c2ccc(Cl)cc2)c2ccc(Cl)cc2)C1 [Compound 17, 3-[{1-[bis(4-chlorophenyl)methyl]azetidin-3-yl}(methylsulphonyl)amino]-5-fluoro-N-(isoxazol-3-yl)benzamide] | –
– | CS(=O)(=O)N(c1cc(F)cc(C(=O)Nc2ccccn2)c1)C1CN(C(c2ccc(Cl)cc2)c2ccc(Cl)cc2)C1 [Compound 18, 3-[{1-[bis(4-chlorophenyl)methyl]azetidin-3-yl}(methylsulphonyl)amino]-5-fluoro-N-(pyridin-2-yl)benzamide] | IC50 (human CB1 receptor; [1]): 6 nM
222 to 224 °C | Cc1cc(NC(=O)c2cc(F)cc(N(C3CN(C(c4ccc(Cl)cc4)c4ccc(Cl)cc4)C3)S(C)(=O)=O)c2)no1 [Compound 21, 3-[{1-[Bis(4-chlorophenyl)methyl]azetidin-3-yl)(methylsulphonyl)amino]-5-fluoro-N-(5-methylisoxazol-3-yl)benzamide] | –
234 to 236 °C | CS(=O)(=O)N(c1cc(F)cc(C(=O)Nc2cnoc2)c1)C1CN(C(c2ccc(Cl)cc2)c2ccc(Cl)cc2)C1 [Compound 24, 3-[{1-[bis(4-chlorophenyl)methyl]azetidin-3-yl}(methylsulphonyl)amino]-5-fluoro-N-(isoxazol-4-yl)benzamide] | –
224 to 226 °C | Cc1cc(NC(=O)c2cc(F)cc(N(C3CN(C(c4ccc(Cl)cc4)c4ccc(Cl)cc4)C3)S(C)(=O)=O)c2)on1 [Compound 26, 3-[{1-[bis(4-chlorophenyl)methyl]azetidin-3-yl}(methylsulphonyl)amino]-5-fluoro-N-(3-methylisoxazol-5-yl)benzamide] | –
184 to 186 °C | Cc1ccnc(NC(=O)c2cc(F)cc(N(C3CN(C(c4ccc(Cl)cc4)c4ccc(Cl)cc4)C3)S(C)(=O)=O)c2)c1 [Compound 27, 3-[{1-[bis(4-chlorophenyl)methyl]azetidin-3-yl}(methylsulphonyl)amino]-5-fluoro-N-(4-methylpyridin-2-yl)benzamide] | –
176 to 178 °C | Cc1cccc(NC(=O)c2cc(F)cc(N(C3CN(C(c4ccc(Cl)cc4)c4ccc(Cl)cc4)C3)S(C)(=O)=O)c2)n1 [Compound 28, 3-[{1-[bis(4-chlorophenyl)methyl]azetidin-3-yl}(methylsulphonyl)amino]-5-fluoro-N-(6-methylpyridin-2-yl)benzamide] | –
210 °C | CS(=O)(=O)N(c1cccc(C(=O)Nc2ccc(N)nc2)c1)C1CN(C(c2ccc(Cl)cc2)c2ccc(Cl)cc2)C1 [Compound 30, N-(6-aminopyridin-3-yl)-3-[{1-[bis(4-chlorophenyl)methyl]azetidin-3-yl}(methylsulphonyl)amino]benzamide] | –
222 °C | CS(=O)(=O)N(c1cccc(C(=O)Nc2nc(N)n[nH]2)c1)C1CN(C(c2ccc(Cl)cc2)c2ccc(Cl)cc2)C1 [Compound 31, N-(3-amino-1H-1,2,4-triazol-5-yl)-3-[{1-[bis(4-chlorophenyl)methyl]azetidin-3-yl}(methylsulphonyl)amino]benzamide] | –
124 °C | CS(=O)(=O)N(c1cccc(C(=O)NCc2nn[nH]n2)c1)C1CN(C(c2ccc(Cl)cc2)c2ccc(Cl)cc2)C1 [Compound 33, 3-[{1-[bis(4-chlorophenyl)methyl]azetidin-3-yl}(methylsulphonyl)amino]-N-(2H-tetrazol-5-ylmethyl)benzamide] | –
165 °C | N#Cc1ccnc(NC(=O)c2cc(F)cc(NS(=O)(=O)CC3CN(C(c4ccc(Cl)cc4)c4ccc(Cl)cc4)C3)c2)c1 [Compound 34, 3-({1-[bis(4-chlorophenyl)methyl]azetidin-3-yl}methylsulphonylamino)-N-(4-cyanopyridin-2-yl)-5-fluorobenzamide] | –
– | CS(=O)(=O)N(c1cc(F)cc(C(=O)Nc2cc(C#N)ccn2)c1)C1CN(C(c2ccc(Cl)cc2)c2ccc(Cl)cc2)C1 [Compound 34] | percentages of inhibition (cannabinoid CB1 receptor): 46%; IC50 (human CB1 receptor): 20 nM
– | CC(NC(=O)c1cc(F)cc(N(C2CN(C(c3ccc(Cl)cc3)c3ccc(Cl)cc3)C2)S(C)(=O)=O)c1)c1ccccn1 (stereo not drawn) [Compound 39] | percentages of inhibition (cannabinoid CB1 receptor): 66%; IC50 (human CB1 receptor): 33 nM
– | CS(=O)(=O)N(c1cc(F)cc(C(=O)NCc2ccc(=O)[nH]c2)c1)C1CN(C(c2ccc(Cl)cc2)c2ccc(Cl)cc2)C1 [Compound 47] | percentages of inhibition (cannabinoid CB1 receptor): 68%; IC50 (human CB1 receptor): 9 nM
